Assay: Effective concentration required to stimulate Adenylate cyclase

Cc1ccc([C@H]2CNCCc3cc(O)c(O)cc32)cc1
EC50: 210 nM

Reference: BindingDB's records for doi:10.1021/jm00170a025 (Royal Danish School of Pharmacy, 1990)
